{"source": "ChEMBL document CHEMBL5465560", "about": "“Selectivity Literature for EUbOPEN Chemogenomic Library” (2024)", "key": {"[1]": {"molecular_target": "Cyclin-dependent kinase 9 (Homo sapiens, UniProt P50750)", "conditions": "at 10 µM"}, "[2]": {"molecular_target": "Hepatocyte growth factor receptor (Homo sapiens, UniProt P08581)", "sequence (P08581 whole entry)": "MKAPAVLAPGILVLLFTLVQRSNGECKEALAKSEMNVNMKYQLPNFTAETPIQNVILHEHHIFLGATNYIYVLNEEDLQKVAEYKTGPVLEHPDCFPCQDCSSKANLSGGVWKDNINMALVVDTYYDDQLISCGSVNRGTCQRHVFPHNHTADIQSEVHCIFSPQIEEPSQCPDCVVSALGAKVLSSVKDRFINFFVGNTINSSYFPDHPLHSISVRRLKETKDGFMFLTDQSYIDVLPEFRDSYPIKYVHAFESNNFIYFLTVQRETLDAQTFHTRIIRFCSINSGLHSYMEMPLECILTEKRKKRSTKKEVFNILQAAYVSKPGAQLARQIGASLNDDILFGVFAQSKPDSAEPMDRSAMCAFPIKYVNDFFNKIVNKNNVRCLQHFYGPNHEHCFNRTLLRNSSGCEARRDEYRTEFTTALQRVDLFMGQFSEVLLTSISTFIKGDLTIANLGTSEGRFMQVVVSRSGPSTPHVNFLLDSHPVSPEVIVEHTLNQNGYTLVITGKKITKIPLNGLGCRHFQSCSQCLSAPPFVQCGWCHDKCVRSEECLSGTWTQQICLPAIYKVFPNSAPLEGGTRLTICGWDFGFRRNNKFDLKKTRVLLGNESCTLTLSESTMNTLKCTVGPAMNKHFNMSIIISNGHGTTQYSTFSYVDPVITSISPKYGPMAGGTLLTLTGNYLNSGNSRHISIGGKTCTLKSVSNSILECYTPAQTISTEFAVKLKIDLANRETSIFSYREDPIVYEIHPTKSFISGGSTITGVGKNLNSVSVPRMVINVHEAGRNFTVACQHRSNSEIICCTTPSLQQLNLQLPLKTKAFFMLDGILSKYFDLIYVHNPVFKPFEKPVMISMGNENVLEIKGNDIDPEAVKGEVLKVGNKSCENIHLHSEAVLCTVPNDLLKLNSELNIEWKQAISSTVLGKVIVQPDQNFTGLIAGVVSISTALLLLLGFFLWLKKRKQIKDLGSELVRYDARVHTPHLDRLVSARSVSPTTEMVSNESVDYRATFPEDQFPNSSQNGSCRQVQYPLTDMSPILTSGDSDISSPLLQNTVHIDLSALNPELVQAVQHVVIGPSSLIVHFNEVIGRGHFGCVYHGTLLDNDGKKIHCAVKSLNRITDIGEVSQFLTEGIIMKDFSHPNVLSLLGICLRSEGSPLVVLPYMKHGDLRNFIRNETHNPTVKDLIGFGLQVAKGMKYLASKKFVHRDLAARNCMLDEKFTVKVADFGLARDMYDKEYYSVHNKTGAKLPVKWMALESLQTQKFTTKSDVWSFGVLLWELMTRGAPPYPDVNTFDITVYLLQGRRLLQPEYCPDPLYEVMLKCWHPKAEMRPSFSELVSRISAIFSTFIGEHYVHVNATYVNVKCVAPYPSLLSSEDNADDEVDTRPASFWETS", "assay": "(§1) Selectivity interaction (KinomeScan (DiscoverX)) EUB0000229b MET", "conditions": "at 10 µM"}, "[3]": {"tested_on": "Hepatocyte growth factor receptor (Homo sapiens), P08581 [Y1235D]", "assay": "as §1", "conditions": "at 1 µM"}, "[4]": {"tested_on": "Hepatocyte growth factor receptor (Homo sapiens), P08581 [M1250T]", "assay": "as §1", "conditions": "at 1 µM"}, "[5]": {"molecular_target": "cAMP-dependent protein kinase catalytic subunit alpha (Homo sapiens, UniProt P17612)", "assay": "Selectivity interaction (Upstate Kinase Profiler service (Millipore)) EUB0000056c PRKACA", "conditions": "at 1 µM"}, "[6]": {"tested_on": "Epidermal growth factor receptor (Homo sapiens), P00533 [UNDEFINED MUTATION]", "sequence (P00533 whole entry, looked up, change not shown)": "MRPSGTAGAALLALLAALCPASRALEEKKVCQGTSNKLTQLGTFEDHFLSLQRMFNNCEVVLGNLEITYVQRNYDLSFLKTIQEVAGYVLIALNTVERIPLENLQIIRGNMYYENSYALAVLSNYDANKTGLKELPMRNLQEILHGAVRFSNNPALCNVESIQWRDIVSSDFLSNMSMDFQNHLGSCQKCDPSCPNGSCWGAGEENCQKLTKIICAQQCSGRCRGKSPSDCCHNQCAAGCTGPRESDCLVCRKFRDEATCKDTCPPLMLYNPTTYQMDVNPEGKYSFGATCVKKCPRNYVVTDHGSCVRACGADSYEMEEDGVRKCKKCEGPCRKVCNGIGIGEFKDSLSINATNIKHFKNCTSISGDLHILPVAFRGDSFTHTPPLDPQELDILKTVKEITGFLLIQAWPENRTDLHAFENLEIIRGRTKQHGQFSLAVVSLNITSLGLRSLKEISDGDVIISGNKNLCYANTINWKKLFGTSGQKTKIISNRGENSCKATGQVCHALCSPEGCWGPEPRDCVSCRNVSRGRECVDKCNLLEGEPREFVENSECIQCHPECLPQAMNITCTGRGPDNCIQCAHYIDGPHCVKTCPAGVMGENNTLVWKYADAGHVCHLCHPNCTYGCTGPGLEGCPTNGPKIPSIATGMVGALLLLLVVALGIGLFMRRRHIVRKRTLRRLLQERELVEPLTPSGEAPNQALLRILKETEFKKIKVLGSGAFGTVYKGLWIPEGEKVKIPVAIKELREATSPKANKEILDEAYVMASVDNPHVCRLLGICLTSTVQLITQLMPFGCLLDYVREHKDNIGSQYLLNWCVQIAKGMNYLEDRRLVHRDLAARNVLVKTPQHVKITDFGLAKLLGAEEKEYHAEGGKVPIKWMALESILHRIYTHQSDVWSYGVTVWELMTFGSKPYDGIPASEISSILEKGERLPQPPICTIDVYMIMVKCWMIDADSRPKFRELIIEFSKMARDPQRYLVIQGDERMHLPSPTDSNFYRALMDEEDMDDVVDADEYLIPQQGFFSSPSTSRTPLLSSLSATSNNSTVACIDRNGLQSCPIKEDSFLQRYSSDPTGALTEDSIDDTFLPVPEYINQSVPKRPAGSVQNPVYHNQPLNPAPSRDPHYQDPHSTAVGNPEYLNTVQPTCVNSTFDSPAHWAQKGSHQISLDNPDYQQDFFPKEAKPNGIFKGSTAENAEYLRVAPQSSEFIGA", "assay": "Selectivity interaction (ProQinase) EUB0000171b EGFR", "conditions": "at 5 µM"}, "[7]": {"molecular_target": "T1, Bone morphogenetic protein receptor type-2 (Homo sapiens) (UniProt Q13873)", "T1 sequence (whole entry)": "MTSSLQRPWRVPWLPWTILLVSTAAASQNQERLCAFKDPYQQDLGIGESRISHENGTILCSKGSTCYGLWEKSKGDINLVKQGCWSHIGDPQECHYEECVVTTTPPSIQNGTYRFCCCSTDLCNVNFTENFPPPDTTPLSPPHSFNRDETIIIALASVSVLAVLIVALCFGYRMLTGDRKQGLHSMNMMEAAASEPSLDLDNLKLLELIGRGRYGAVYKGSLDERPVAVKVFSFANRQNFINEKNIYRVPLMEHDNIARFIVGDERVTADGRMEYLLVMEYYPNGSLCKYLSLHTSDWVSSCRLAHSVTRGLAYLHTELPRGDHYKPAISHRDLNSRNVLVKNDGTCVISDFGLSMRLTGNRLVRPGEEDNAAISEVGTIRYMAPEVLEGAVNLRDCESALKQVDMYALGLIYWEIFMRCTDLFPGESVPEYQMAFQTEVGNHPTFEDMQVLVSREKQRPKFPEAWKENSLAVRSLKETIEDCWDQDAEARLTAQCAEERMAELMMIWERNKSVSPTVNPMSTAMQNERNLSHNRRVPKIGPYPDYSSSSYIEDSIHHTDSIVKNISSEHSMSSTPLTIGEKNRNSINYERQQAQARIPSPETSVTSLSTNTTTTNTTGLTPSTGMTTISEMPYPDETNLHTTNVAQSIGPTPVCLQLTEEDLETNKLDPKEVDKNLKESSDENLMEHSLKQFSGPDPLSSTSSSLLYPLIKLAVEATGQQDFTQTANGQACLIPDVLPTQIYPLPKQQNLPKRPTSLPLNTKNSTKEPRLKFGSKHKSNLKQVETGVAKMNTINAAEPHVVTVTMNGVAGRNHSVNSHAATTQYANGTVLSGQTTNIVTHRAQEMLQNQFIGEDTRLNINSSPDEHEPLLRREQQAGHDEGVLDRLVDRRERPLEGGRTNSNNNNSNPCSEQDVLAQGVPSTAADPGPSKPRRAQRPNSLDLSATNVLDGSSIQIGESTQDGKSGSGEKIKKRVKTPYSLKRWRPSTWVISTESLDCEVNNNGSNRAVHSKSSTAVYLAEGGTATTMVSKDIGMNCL", "assay": "Selectivity interaction (Kinase panel (DSF assay)) EUB0001559a BMPR2"}, "[8]": {"molecular_target": "Tyrosine-protein kinase Fyn (Homo sapiens) (UniProt P06241)", "assay": "Selectivity interaction (ActivX KiNativ screen (kinase selectivity in THP-1 cell lysates)) EUB0000639a FYN", "assay_type": "subcellular", "conditions": "lysate, at 5 µM"}, "[9]": {"molecular_target": "T2, Inhibitor of nuclear factor kappa-B kinase subunit alpha (Homo sapiens) (UniProt O15111)", "T2 sequence (whole entry)": "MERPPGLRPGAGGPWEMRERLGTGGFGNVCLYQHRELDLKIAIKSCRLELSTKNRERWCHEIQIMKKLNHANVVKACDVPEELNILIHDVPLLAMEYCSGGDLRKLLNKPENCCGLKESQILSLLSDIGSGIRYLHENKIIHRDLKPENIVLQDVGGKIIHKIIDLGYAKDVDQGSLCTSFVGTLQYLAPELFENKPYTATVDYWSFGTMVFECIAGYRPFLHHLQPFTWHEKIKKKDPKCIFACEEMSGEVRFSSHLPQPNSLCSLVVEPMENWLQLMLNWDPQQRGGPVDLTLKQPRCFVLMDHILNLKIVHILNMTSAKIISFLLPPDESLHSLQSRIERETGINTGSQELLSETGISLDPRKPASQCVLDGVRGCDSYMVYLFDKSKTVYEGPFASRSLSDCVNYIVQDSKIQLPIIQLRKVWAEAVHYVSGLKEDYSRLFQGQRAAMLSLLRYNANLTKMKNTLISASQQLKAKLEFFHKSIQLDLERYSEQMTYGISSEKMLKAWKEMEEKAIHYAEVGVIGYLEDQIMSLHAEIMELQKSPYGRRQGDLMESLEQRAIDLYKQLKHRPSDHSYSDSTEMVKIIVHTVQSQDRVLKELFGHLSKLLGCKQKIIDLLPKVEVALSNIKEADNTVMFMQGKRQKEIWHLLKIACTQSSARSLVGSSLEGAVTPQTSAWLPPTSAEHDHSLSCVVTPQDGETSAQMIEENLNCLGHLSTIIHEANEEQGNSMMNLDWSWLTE", "assay": "Selectivity interaction (Kinase panel (Invitrogen)) EUB0000639a CHUK", "conditions": "at 200 nM"}, "[10]": {"molecular_target": "Microtubule-associated serine/threonine-protein kinase 1 (Homo sapiens) (UniProt Q9Y2H9)", "sequence (Q9Y2H9 whole entry, looked up)": "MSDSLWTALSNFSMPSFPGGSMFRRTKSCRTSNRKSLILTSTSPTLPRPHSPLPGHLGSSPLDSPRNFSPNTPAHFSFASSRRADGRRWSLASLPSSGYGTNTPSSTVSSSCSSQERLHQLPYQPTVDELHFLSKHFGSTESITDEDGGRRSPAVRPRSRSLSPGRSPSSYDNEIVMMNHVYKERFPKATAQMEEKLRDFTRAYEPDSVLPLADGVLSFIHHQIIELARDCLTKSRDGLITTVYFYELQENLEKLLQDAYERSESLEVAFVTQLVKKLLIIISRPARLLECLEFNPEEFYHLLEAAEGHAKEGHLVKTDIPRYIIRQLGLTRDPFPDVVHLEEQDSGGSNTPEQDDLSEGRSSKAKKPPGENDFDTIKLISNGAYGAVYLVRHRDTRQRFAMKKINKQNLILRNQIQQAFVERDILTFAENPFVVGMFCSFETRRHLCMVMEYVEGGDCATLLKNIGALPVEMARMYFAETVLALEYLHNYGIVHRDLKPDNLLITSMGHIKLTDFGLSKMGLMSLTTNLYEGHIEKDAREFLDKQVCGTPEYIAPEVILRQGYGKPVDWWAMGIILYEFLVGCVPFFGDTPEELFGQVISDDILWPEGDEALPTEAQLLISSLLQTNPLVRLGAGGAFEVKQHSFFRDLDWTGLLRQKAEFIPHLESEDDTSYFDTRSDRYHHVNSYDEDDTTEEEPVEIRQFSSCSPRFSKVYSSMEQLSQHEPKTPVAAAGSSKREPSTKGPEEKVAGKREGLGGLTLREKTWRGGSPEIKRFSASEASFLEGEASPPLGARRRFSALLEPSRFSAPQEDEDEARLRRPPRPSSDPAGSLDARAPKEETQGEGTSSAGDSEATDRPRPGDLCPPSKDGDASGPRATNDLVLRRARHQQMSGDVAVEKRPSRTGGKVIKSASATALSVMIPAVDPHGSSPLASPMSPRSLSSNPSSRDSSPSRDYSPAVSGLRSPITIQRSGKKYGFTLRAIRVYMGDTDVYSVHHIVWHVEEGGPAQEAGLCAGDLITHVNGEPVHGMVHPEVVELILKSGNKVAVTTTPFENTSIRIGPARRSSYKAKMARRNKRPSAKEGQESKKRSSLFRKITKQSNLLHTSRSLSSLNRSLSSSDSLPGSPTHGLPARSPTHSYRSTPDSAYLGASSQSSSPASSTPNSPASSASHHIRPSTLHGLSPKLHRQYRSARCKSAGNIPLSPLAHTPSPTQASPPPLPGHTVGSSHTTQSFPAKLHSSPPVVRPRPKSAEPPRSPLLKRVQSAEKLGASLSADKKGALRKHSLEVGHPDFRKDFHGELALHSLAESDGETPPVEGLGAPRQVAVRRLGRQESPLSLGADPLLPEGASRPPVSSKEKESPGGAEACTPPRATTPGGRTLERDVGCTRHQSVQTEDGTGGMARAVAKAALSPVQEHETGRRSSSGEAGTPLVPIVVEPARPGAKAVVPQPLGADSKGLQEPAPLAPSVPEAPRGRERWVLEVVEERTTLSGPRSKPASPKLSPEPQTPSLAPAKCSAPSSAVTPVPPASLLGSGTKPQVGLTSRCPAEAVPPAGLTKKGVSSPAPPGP", "assay": "Selectivity interaction (KinomeScan (DiscoverX)) EUB0000695a MAST1", "conditions": "at 100 nM"}, "[11]": {"molecular_target": "NUAK family SNF1-like kinase 1 (Homo sapiens, UniProt O60285)", "sequence (O60285 whole entry)": "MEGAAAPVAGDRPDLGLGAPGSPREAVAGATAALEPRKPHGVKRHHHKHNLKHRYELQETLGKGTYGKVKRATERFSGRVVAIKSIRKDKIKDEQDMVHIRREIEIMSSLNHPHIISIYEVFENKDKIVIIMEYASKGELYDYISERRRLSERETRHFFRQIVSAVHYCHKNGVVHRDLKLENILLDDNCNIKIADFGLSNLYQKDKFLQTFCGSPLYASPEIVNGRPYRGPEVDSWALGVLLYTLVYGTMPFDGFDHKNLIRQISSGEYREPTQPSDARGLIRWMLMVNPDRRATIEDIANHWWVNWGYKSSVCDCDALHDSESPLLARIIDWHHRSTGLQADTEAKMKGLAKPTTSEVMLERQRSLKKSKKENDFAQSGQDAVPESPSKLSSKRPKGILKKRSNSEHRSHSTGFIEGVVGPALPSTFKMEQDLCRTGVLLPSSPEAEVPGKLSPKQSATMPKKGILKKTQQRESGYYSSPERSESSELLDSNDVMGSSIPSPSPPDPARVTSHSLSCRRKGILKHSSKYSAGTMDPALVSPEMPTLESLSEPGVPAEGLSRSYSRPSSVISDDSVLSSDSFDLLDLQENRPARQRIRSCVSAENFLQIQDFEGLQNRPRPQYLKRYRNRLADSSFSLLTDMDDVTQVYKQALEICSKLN", "assay": "Selectivity interaction (Enzymatic assay) EUB0001199aCl NUAK1"}, "[12]": {"molecular_target": "Beta-2 adrenergic receptor (Homo sapiens, UniProt P07550)", "assay": "Selectivity interaction (Eurofins CEREP Diversity Profile (receptors and ion channels)) EUB0000279b ADRB2", "conditions": "at 10 µM"}, "[13]": {"molecular_target": "Ribosomal protein S6 kinase alpha-5 (Homo sapiens) (UniProt O75582)", "assay": "Selectivity interaction (ActivX KiNativ screen (ex vivo kinase selectivity in human PBMCs)) EUB0001619a RPS6KA5", "assay_type": "cell-based", "conditions": "PBMC, at 1 µM"}}, "data": [{"smiles": "CCN(CC)CCCCNc1ncc2cc(-c3cc(OC)cc(OC)c3)c(NC(=O)NC(C)(C)C)nc2n1", "values": [{"measurement": "% of control", "setting": "[1]", "value": 100, "unit": "%"}]}, {"smiles": "COc1cc(N(C)c2ccnc3ccc(C(F)(F)F)cc23)cc(OC)c1OC", "values": [{"measurement": "% binding", "setting": "[2]", "value": 100, "unit": "%"}, {"measurement": "% binding", "setting": "[3]", "value": 82, "unit": "%"}, {"measurement": "% binding", "setting": "[4]", "value": 96, "unit": "%"}]}, {"smiles": "Cc1ccc(-c2ccc3c(ccc4sc5c(c43)NC[C@@H](C)NC5=O)n2)cn1", "values": [{"measurement": "% of inhibition", "setting": "[5]", "value": 14, "unit": "%"}]}, {"smiles": "C=CC(=O)Nc1cccc(C(=O)Nc2ccc(Nc3cc(-c4[nH]c(SC)nc4C)ccn3)cc2)c1", "values": [{"measurement": "% of control", "setting": "[6]", "value": 101, "unit": "%"}]}, {"smiles": "CN(C(=O)c1cnn2cccnc12)c1cc2c(cc1N1CCOCC1)C(=O)N(C[C@@H](F)C(C)(C)O)C2", "values": [{"measurement": "dTM", "setting": "[7]", "value": -0.3, "unit": "K"}]}, {"smiles": "CC[C@@H]1[C@H](F)C(=O)N[C@@H]1COc1nccc2cc(C(N)=O)c(OC)cc12", "note": "[ZIMLOVISERTIB]", "values": [{"measurement": "% of inhibition", "setting": "[8]", "value": -13.3, "unit": "%"}, {"measurement": "% of inhibition", "setting": "[9]", "value": -5.38, "unit": "%"}]}, {"smiles": "Cc1cc(F)c(C(=O)Nc2cccc(-c3nncn3C(C)C)n2)cc1-n1cnc(C2CC2)c1", "values": [{"measurement": "% of control", "setting": "[10]", "value": 87, "unit": "%"}]}, {"smiles": "CN1Cc2nccc(-c3cn(C)nc3-c3ccc(F)cc3)c2C1=O", "values": [{"measurement": "IC50", "setting": "[11]", "value": 10.2, "unit": "µM"}]}, {"smiles": "CC(=O)c1cc(-c2ccccc2OCC2CC2)c2ncccn12", "values": [{"measurement": "% of control", "setting": "[12]", "value": 99, "unit": "%"}]}, {"smiles": "N#Cc1cccc(-c2c[nH]c3ncnc(N4CCOCC4)c23)c1", "values": [{"measurement": "% of inhibition", "setting": "[13]", "value": -4, "unit": "%"}]}]}
